Assay results as given in ChEMBL document CHEMBL2074032, “Involvement of MDR1 P-glycoprotein in multifactorial resistance to methotrexate” (Int J Cancer, 1996).

Target: ATP-dependent translocase ABCB1 (Homo sapiens, UniProt P08183)
Experiment: TP_TRANSPORTER: intracellular accumulation in CEM/MTX R cells
Format: functional, cell-based

Chain of ATP-dependent translocase ABCB1 (P08183 whole entry): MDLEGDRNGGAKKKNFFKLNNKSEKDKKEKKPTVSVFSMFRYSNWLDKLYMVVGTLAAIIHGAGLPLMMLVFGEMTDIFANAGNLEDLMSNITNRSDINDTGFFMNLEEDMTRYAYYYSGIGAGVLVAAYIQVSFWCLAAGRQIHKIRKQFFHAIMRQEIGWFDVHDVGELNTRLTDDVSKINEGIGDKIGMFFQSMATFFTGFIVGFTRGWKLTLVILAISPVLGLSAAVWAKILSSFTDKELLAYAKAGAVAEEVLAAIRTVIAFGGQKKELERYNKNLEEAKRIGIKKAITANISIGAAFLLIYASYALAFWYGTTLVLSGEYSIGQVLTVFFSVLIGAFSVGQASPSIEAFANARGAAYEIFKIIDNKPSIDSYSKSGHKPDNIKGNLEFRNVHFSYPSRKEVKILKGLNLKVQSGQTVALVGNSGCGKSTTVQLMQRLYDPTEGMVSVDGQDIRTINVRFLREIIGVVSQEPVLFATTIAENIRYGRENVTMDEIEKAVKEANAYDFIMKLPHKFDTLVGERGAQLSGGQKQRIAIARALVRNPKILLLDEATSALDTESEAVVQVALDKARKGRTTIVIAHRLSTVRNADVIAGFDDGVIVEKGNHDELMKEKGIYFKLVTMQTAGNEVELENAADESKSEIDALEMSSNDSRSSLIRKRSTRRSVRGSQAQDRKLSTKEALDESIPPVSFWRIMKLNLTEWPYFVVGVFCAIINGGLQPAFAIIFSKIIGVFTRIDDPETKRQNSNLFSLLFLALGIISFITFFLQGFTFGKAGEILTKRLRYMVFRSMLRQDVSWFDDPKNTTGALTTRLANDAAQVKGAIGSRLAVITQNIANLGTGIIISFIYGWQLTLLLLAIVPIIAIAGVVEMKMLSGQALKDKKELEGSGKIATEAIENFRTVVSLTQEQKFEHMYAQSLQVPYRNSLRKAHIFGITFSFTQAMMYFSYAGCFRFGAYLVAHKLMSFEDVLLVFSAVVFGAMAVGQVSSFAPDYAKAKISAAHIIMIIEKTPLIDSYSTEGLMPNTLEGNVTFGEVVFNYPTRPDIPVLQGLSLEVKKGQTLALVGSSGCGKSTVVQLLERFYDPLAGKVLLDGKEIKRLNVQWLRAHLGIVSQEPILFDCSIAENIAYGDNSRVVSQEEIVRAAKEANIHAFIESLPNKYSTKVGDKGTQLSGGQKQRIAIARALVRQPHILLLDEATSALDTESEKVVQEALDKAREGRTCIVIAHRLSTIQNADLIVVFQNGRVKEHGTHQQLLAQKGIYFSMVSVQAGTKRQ

With `CN(Cc1cnc2nc(N)nc(N)c2n1)c1ccc(C(=O)N[C@@H](CCC(=O)O)C(=O)O)cc1` [METHOTREXATE] the Activity was “substrate [+]”.
